Results as given in patent US20240025844A1, “PHENYL UREA ANALOGS AS FORMYL PEPTIDE RECEPTOR 1 (FPR1) SELECTIVE AGONISTS” (Allergan, Inc., priority 2018, published 2024).

The compounds below were run against T1, FPR2 (Homo sapiens, UniProt P25090) (assay: Compound-induced calcium activity on FLIPR Tetra in Gα16 cells stably expressing FPR2). Conditions: relative efficacy, value in brackets, table head Ga16-HEK293, text CHO-Gα16 cells.
T1 construct: expressed in transfected cells; host or cells: CHO-Gα16 cells
T1 sequence (P25090 1-351): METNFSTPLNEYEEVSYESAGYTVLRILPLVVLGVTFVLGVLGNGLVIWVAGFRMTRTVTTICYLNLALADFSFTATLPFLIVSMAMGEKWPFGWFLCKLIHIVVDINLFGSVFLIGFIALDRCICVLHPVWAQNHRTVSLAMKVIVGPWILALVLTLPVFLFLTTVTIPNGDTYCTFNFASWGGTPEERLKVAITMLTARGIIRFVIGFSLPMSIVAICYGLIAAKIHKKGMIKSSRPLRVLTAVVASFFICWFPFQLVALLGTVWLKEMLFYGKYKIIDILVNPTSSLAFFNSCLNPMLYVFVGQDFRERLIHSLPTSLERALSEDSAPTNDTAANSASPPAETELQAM
Format: cell-based
Protocol: (§1) CHO-Gα16 cells stably expressing FPR1 or FPR2 were cultured in (F12, 10% FBS, 1% PSA, 400 μg/ml geneticin and 50 μg/ml hygromycin). In general, the day before the experiment, 18,000 cells/well were plated in a 384-well clear bottom poly-D-lysine coated plate. The following day the screening compound-induced calcium activity was assayed on the FLIPR^Tetra. The drug plates were prepared in 384-well microplates using the EP3 and the MultiPROBE robotic liquid handling systems. Compounds were tested at concentrations ranging from 0.61 to 10,000 nM. Results are expressed as EC50 (nM) and efficacy values.
CC(C)C[C@H](NC(=O)CNC(=O)Nc1ccc(Br)cc1)C(=O)O [Compound 1, (S)-2-(2-(3-(4-bromophenyl)ureido)acetamido)-4-methylpentanoic acid] was tested, and the “FPR2 Ga16-HEK293 (Rel. eff.)” value was 0.91. With O=C(CNC(=O)Nc1ccc(Br)cc1)N[C@@H](Cc1ccccc1)C(=O)O [Compound 4, (S)-2-(2-(3-(4-bromophenyl)ureido)acetamido)-3-phenylpropanoic acid] the “FPR2 Ga16-HEK293 (Rel. eff.)” value was 1.07. For CC(C)C[C@H](NC(=O)CCNC(=O)Nc1ccc(Br)cc1)C(=O)O [Compound 5, (S)-2-(3-(3-(4-bromophenyl)ureido)propanamido)-4-methylpentanoic acid], the “FPR2 Ga16-HEK293 (Rel. eff.)” value was 0.81. CCC[C@H](NC(=O)CNC(=O)Nc1ccc(Br)cc1)C(=O)O [Compound 6, (S)-2-(2-(3-(4-bromophenyl)ureido)acetamido)pentanoic acid] was tested, and the “FPR2 Ga16-HEK293 (Rel. eff.)” value was 1.05.

Same assay, conditions: table head Ga16-HEK293, text CHO-Gα16 cells stably expressing FPR2, tested 0.61 to 10,000 nM
In the case of CC(C)C[C@H](NC(=O)CNC(=O)Nc1ccc(Br)cc1)C(=O)O [Compound 1, (S)-2-(2-(3-(4-bromophenyl)ureido)acetamido)-4-methylpentanoic acid], the EC50 is reported as 224 nM. Work on O=C(CNC(=O)Nc1ccc(Br)cc1)N[C@@H](Cc1ccccc1)C(=O)O [Compound 4, (S)-2-(2-(3-(4-bromophenyl)ureido)acetamido)-3-phenylpropanoic acid] yielded an EC50 of 356 nM. Compound CC(C)C[C@H](NC(=O)CCNC(=O)Nc1ccc(Br)cc1)C(=O)O [Compound 5, (S)-2-(3-(3-(4-bromophenyl)ureido)propanamido)-4-methylpentanoic acid] has an EC50 of 5630 nM. Compound CCC[C@H](NC(=O)CNC(=O)Nc1ccc(Br)cc1)C(=O)O [Compound 6, (S)-2-(2-(3-(4-bromophenyl)ureido)acetamido)pentanoic acid] has an EC50 of 308 nM.

What follows are compounds tested against T2, FPR1 (Homo sapiens, UniProt P21462) (assay: Compound-induced calcium activity on FLIPR Tetra in Gα16 cells stably expressing FPR1). Conditions: relative efficacy, value in brackets, table head Ga16-HEK293, text CHO-Gα16 cells.
T2 construct: expressed in transfected cells; host or cells: CHO-Gα16 cells
T2 sequence (P21462 1-350): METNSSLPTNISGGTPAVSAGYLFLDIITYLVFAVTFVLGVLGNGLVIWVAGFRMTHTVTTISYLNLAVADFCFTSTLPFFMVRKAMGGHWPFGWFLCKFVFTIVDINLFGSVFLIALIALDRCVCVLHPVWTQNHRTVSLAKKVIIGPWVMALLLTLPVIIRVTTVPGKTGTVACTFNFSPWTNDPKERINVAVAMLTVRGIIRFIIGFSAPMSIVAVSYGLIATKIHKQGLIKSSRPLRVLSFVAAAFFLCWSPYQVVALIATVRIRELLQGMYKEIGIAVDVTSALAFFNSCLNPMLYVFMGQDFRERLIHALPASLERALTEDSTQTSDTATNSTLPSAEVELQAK
Format: cell-based
Protocol: as §1
For CC(C)C[C@H](NC(=O)CNC(=O)Nc1ccc(Br)cc1)C(=O)O [Compound 1, (S)-2-(2-(3-(4-bromophenyl)ureido)acetamido)-4-methylpentanoic acid], the “FPR1 Ga16-HEK293 (Rel. eff.)” value was 1.00. For O=C(CNC(=O)Nc1ccc(Br)cc1)N[C@@H](Cc1ccccc1)C(=O)O [Compound 4, (S)-2-(2-(3-(4-bromophenyl)ureido)acetamido)-3-phenylpropanoic acid], the “FPR1 Ga16-HEK293 (Rel. eff.)” value was 0.97. For CC(C)C[C@H](NC(=O)CCNC(=O)Nc1ccc(Br)cc1)C(=O)O [Compound 5, (S)-2-(3-(3-(4-bromophenyl)ureido)propanamido)-4-methylpentanoic acid], the “FPR1 Ga16-HEK293 (Rel. eff.)” value was 0.99. With CCC[C@H](NC(=O)CNC(=O)Nc1ccc(Br)cc1)C(=O)O [Compound 6, (S)-2-(2-(3-(4-bromophenyl)ureido)acetamido)pentanoic acid] the “FPR1 Ga16-HEK293 (Rel. eff.)” value was 0.98.

Same assay, conditions: table head Ga16-HEK293, text CHO-Gα16 cells stably expressing FPR1, tested 0.61 to 10,000 nM
CC(C)C[C@H](NC(=O)CNC(=O)Nc1ccc(Br)cc1)C(=O)O [Compound 1, (S)-2-(2-(3-(4-bromophenyl)ureido)acetamido)-4-methylpentanoic acid] was tested, and the EC50 was 0.58 nM. O=C(CNC(=O)Nc1ccc(Br)cc1)N[C@@H](Cc1ccccc1)C(=O)O [Compound 4, (S)-2-(2-(3-(4-bromophenyl)ureido)acetamido)-3-phenylpropanoic acid] showed an EC50 of 14.7 nM. In the case of CC(C)C[C@H](NC(=O)CCNC(=O)Nc1ccc(Br)cc1)C(=O)O [Compound 5, (S)-2-(3-(3-(4-bromophenyl)ureido)propanamido)-4-methylpentanoic acid], the EC50 is reported as 76 nM. CCC[C@H](NC(=O)CNC(=O)Nc1ccc(Br)cc1)C(=O)O [Compound 6, (S)-2-(2-(3-(4-bromophenyl)ureido)acetamido)pentanoic acid] showed an EC50 of 4.93 nM.
